Measurements: article PMC9506414, “Novel 2,6,9-Trisubstituted Purines as Potent CDK Inhibitors Alleviating Trastuzumab-Resistance of HER2-Positive Breast Cancers” (Pharmaceuticals, 2022)
Where two headings read alike, the source gives them in different places.

Columns and labels:
[1] = tested on: cyclinK; assay: Western blot of cyclinK in SK-Br3 cells; assay type: cell-based, human; details: 2 h
Description: (§1) The proteins were transferred to nitrocellulose membrane (Gelman Sciences, Ann Arbor, MI, USA) by electroblotting. The membranes were blocked with 5% non-fat dry milk (MB Cell, Seoul, Korea), incubated with primary antibodies for overnight at 4 °C. After the washing steps were performed with TBST solution, the membranes were incubated with HRP-conjugated secondary antibodies for 1 h at rt. After the secondary washing steps using TBST solution, protein bands on the membranes were visualized using enhanced chemiluminescence ECL detection reagent (Biorad Laboratories, Hercules, CA, USA).

[2] = tested on: Pol II p-CTD (Ser2); assay: Western blot of Pol II p-CTD (Ser2) in HCC1954 cells; assay type: cell-based, human; details: 40 and 200 nM (dinaciclib 40 nM), 2 h
From the text: (§2) For Western blot analysis, the following antibodies were used: anti-Pol II CTD (2629S, Cell Signaling Technology, Danvers, MA, USA), anti-Pol II p-CTD (Ser2) (13499S, Cell Signaling Technology), anti-cyclinK (A301-939A-M, Bethyl Laboratories), anti-IRS1 (3407S, Cell Signaling Technology), anti-WNT1 (SC-514531, Santa Cruz Biotechnology, Dallas, TX, USA), anti-β-actin (MAB1501R, Millipore, Burlington, MA, USA), and horseradish peroxidase (HRP)-conjugated secondary antibodies (anti-mouse GTX213112-01; anti-rabbit GTX213110-01) (Genetex, Irvine, CA, USA).
as §1, with “Cells were lysed with lysis buffer containing 50 mM Tris pH 7.4, 150 mM NaCl, 1 mM EDTA, 1% NP-40, and 0.25% sodium deoxycholate supplemented with protease-inhibitor and phosphatase-inhibitor cocktails. The lysate samples (25 μg/lane) were loaded onto 6–12% sodium dodecyl sulfate polyacrylamide gel and separated by electrophoresis (SDS-PAGE). The proteins” for “The proteins”

[3] = tested on: cyclinK; assay: Western blot of cyclinK in HCC1954 cells; assay type: cell-based, human; details: 40 and 200 nM (dinaciclib 40 nM), 2 h
Description: as §1

[4] = tested on: WNT1; assay: Western blot of WNT1 in HCC1954 cells; assay type: cell-based, human; details: 40 and 200 nM, 24 h
From the text: as §2
(§3) Cells were lysed with lysis buffer containing 50 mM Tris pH 7.4, 150 mM NaCl, 1 mM EDTA, 1% NP-40, and 0.25% sodium deoxycholate supplemented with protease-inhibitor and phosphatase-inhibitor cocktails. The lysate samples (25 μg/lane) were loaded onto 6–12% sodium dodecyl sulfate polyacrylamide gel and separated by electrophoresis (SDS-PAGE). The proteins were transferred to nitrocellulose membrane (Gelman Sciences, Ann Arbor, MI, USA) by electroblotting. The membranes were blocked with 5% non-fat dry milk (MB Cell, Seoul, Korea), incubated with primary antibodies for overnight at 4 °C. After the washing steps were performed with TBST solution, the membranes were incubated with HRP-conjugated secondary antibodies for 1 h at rt. […]

[5] = tested on: Pol II p-CTD (Ser2); assay: Western blot of Pol II p-CTD (Ser2) in SK-Br3 cells; assay type: cell-based, human; details: 2 h
From the text: as §2
Cells were lysed with lysis buffer containing 50 mM Tris pH 7.4, 150 mM NaCl, 1 mM EDTA, 1% NP-40, and 0.25% sodium deoxycholate supplemented with protease-inhibitor and phosphatase-inhibitor cocktails. The lysate samples (25 μg/lane) were loaded onto 6–12% sodium dodecyl sulfate polyacrylamide gel and separated by electrophoresis (SDS-PAGE). The proteins were transferred to nitrocellulose membrane (Gelman Sciences, Ann Arbor, MI, USA) by electroblotting. The membranes were blocked with 5% non-fat dry milk (MB Cell, Seoul, Korea), incubated with primary antibodies for overnight at 4 °C. After the washing steps were performed with TBST solution, the membranes were incubated with HRP-conjugated secondary antibodies for 1 h at rt. After the secondary washing steps using TBST solution, protein bands on the membranes were visualized using enhanced chemiluminescence ECL detection reagent (Biorad Laboratories, Hercules, CA, USA).

[6] = tested on: IRS1; assay: Western blot of IRS1 in SK-Br3 cells; assay type: cell-based, human; details: 40 and 200 nM, 24 h
From the text: as §2, §3

[7] = In vitro liver microsomal stability; assay type: in vitro ADME; details: liver microsomes, pH 7.4, 30 m at 37 °C with NADPH regeneration system
Description: Each compound (final 1 μM, duplicated) was added to each 0.1 M PBS solution (pH 7.4) containing liver microsome of three different species (human, dog, mouse). After a brief (5 m) incubation at 37 °C, the NADPH regeneration system (Promega Corp., Madison, WI, USA) was added, then the mixture was incubated at 37 °C for 30 m. The reaction was terminated by adding acetonitrile containing an internal standard (chlorpropamide), then the mixture was centrifuged at 15,000 rpm, 4 °C for 5 m. The supernatant solution was injected to LC/MS/MS system (TSQ Vantage Triple-Stage Quadrupole Mass Spectrometer, ThermoFisher Scientific, Waltham, MA, USA). The remaining substrates were analyzed with Xcalibur 4.4 s/w using an MRM (multiple reaction monitoring) quantitation mode.

[8] = tested on: WNT1; assay: Western blot of WNT1 in SK-Br3 cells; assay type: cell-based, human; details: 40 and 200 nM, 24 h
From the text: as §2, §3

[9] = molecular target: CYP2D6 (Homo sapiens, UniProt P10635); assay: CYP inhibition; assay type: in vitro ADME
Description: Table 6 In vitro liver metabolic stability and activity against CYPs of potent analogues. | column: CYP % Activity at 10 μM / 2D6

[10] = tested on: SK-Br3 cells; assay: Antiproliferation assay (Cell-titer Glo, 72 h); assay type: cell-based; details: Homo sapiens, SK-BR-3
Procedure, shortened: (§4)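 Cells in RPMI/10% FBS were seeded at 5000 (SK-Br3) or 1000 (HCC-1954) per well and allowed 24 h to settle. Compounds were pin-transferred as 3-fold, 10-point duplicate series from a 10 mM stock and incubated 72 h at 37 °C. Viability was read by CellTiter-Glo luminescence and IC50 obtained by curve fitting.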

[11] = tested on: HCC1954 cells; assay: Antiproliferation assay (Cell-titer Glo, 72 h); assay type: cell-based; details: Homo sapiens
Procedure, shortened: as §4

[12] = molecular target: CYP2C19 (Homo sapiens, UniProt P33261); assay: CYP inhibition; assay type: in vitro ADME
Description: Table 6 In vitro liver metabolic stability and activity against CYPs of potent analogues. | column: CYP % Activity at 10 μM / 2C19

[13] = molecular target: CYP2C9 (Homo sapiens, UniProt P11712); assay: CYP inhibition; assay type: in vitro ADME
Description: Table 6 In vitro liver metabolic stability and activity against CYPs of potent analogues. | column: CYP % Activity at 10 μM / 2C9

[14] = molecular target: CDK12/CyclinK (Homo sapiens, UniProt Q9NYV4); assay: In vitro CDK12/cyclinK kinase assay; assay type: biochemical; set-up: purchased Reaction Biology Corp. (CRO that ran the assay); details: Table 5; means and standard deviations from three independent assays; read-out: CDK12/CyclinK (IC50/μM)
Description: In vitro CDK12/cyclinK assays for all compounds and in vitro kinome-wide inhibition profiling of 30d at 10 μM were performed by a CRO company (Reaction Biology Corp., San Diego, CA, USA).

[15] = SK-Br3 cells, 40 and 200 nM (dinaciclib 40 nM)
[16] = 72 h, means and standard deviations from three independent assays, read-out: SK-Br3 (GI50/μM)
[17] = 72 h, means and standard deviations from three independent assays, read-out: HCC1954 (GI50/μM)

Sequence of CYP2D6 (P10635 whole entry): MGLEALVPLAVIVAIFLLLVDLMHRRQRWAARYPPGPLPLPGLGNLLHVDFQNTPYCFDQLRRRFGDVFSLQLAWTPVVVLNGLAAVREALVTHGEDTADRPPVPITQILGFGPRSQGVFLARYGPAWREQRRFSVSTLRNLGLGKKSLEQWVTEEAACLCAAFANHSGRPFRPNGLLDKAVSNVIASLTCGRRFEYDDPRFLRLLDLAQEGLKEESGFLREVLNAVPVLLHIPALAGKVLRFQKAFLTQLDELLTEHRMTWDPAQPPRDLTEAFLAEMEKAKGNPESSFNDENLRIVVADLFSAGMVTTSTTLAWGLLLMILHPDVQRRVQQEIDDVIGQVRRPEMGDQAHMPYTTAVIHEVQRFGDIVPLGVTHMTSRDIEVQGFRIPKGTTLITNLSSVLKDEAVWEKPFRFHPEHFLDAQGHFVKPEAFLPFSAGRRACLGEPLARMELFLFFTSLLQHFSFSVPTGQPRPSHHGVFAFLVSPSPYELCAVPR
Sequence of CYP2C9 (P11712 whole entry): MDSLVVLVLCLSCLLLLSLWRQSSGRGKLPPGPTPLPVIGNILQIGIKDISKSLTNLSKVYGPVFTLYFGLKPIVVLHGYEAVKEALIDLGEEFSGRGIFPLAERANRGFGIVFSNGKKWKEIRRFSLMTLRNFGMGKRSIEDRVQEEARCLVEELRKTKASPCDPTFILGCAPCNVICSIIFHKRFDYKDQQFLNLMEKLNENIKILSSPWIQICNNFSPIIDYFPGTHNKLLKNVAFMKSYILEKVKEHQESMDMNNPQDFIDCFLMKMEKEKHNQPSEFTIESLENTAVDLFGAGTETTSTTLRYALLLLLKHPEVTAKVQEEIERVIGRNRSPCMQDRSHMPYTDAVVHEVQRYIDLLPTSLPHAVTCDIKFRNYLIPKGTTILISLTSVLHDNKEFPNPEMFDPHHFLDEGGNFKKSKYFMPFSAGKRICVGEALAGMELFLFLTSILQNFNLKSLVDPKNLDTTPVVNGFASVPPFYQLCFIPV
Sequence of CYP2C19 (P33261 whole entry): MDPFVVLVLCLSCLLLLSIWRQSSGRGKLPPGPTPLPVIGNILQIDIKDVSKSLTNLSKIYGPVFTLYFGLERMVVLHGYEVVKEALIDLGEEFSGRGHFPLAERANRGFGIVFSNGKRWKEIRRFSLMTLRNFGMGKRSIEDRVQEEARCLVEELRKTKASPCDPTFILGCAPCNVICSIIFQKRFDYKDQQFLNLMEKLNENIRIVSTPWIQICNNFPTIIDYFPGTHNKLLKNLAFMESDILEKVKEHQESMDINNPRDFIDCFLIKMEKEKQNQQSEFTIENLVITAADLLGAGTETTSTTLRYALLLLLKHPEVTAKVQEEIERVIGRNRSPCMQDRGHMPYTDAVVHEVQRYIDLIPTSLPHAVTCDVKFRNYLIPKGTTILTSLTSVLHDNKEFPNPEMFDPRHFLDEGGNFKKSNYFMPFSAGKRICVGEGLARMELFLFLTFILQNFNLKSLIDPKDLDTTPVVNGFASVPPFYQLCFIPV
Sequence of CDK12/CyclinK (Q9NYV4 whole entry): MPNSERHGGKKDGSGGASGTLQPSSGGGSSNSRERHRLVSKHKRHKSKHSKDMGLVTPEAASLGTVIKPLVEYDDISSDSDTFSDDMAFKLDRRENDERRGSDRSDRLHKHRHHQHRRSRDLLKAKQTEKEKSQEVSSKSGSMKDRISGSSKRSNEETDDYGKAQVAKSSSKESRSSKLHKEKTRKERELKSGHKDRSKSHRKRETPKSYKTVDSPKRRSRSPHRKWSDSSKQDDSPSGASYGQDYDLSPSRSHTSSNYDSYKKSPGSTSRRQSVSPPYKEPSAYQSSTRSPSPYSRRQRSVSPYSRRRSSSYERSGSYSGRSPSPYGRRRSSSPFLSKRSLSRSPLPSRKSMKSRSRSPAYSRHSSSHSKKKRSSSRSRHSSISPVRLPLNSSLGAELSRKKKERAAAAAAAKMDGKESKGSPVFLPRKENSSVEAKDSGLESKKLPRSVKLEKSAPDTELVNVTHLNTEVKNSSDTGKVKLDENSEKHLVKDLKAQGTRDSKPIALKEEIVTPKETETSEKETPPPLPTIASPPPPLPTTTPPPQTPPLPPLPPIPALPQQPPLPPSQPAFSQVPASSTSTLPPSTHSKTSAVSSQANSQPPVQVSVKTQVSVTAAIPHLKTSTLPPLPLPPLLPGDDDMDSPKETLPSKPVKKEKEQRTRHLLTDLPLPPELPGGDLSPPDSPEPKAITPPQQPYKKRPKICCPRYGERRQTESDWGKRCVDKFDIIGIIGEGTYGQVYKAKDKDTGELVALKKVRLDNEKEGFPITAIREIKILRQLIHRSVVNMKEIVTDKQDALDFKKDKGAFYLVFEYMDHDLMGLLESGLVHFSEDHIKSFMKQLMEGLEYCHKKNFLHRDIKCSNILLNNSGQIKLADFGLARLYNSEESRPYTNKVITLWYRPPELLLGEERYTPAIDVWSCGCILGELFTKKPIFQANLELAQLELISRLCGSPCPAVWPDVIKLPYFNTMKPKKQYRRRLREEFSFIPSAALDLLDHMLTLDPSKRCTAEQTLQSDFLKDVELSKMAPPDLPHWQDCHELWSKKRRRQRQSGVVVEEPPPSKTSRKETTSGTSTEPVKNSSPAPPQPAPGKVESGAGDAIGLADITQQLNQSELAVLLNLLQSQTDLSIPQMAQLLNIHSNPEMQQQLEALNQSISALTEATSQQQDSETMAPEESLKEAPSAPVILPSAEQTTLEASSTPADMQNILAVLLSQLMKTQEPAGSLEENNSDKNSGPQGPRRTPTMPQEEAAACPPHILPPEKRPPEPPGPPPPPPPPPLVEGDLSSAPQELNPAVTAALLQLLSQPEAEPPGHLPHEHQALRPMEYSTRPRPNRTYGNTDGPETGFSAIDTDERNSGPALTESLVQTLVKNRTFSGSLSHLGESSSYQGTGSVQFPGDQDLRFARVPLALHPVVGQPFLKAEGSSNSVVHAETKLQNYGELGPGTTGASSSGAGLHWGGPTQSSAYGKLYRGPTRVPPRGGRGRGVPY
Sequence of CDK12/CyclinK (O75909 whole entry partner): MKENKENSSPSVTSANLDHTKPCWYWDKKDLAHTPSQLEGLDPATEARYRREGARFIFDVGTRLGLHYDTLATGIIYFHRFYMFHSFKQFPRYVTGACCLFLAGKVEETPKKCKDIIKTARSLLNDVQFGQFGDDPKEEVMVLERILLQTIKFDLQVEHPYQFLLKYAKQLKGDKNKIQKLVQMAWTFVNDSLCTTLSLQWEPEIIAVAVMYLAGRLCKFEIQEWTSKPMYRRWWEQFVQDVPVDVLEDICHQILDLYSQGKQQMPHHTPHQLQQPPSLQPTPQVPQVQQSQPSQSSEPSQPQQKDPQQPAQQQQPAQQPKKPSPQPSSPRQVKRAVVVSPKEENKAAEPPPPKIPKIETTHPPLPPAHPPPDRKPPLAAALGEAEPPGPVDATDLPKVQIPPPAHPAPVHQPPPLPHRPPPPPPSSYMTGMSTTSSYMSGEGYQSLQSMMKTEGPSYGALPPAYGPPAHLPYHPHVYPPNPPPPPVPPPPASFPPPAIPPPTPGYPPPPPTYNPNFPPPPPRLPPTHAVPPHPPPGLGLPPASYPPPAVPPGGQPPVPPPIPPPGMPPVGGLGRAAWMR

| SMILES | cyclinK level (Western blot) [1, 15] | PolII p-CTD (Ser2) level (Western blot) [2] | cyclinK level (Western blot) [3] | WNT1 expression level (Western blot) [4] | PolII p-CTD (Ser2) level (Western blot) [5, 15] | IRS1 expression level (Western blot) [6] | remaining at 30 min, 1 μM ([7]; dog) [%] | remaining at 30 min, 1 μM ([7]; human) [%] | remaining at 30 min, 1 μM ([7]; mouse) [%] | WNT1 expression level (Western blot) [8] | CYP % Activity at 10 μM 2D6 [9] [%] | GI50 [10, 16] [µM] | GI50 ([10]; read-out: SK-Br3 GI50) [µM] | GI50 [11, 17] [µM] | GI50 ([11]; read-out: HCC1954 GI50) [µM] | CYP % Activity at 10 μM 2C19 [12] [%] | CYP % Activity at 10 μM 2C9 [13] [%] | IC50 [14] [µM] | cyclinK level (Western blot) ([1]; SK-Br3 cells, 0.2, 1 μM) | PolII p-CTD (Ser2) level (Western blot) ([5]; SK-Br3 cells, 0.2, 1 μM) |
| --- | --- | --- | --- | --- | --- | --- | --- | --- | --- | --- | --- | --- | --- | --- | --- | --- | --- | --- | --- | --- |
| CCn1cnc2c(NCc3ccc(-c4ccccn4)nc3)nc(-c3ccc(N)nc3)nc21 [Compound 30d, N-([2,2′-Bipyridin]-5-ylmethyl)-2-(6-aminopyridin-3-yl)-9-ethyl-9H-purin-6-amine] | greatly downregulated in a dose-dependent manner | strong, dose-dependent suppression | greatly downregulated in a dose-dependent manner | strong suppression of IRS1 and WNT1 | strong, dose-dependent suppression | strong suppression of IRS1 and WNT1 | 46.2 | 64.8 | 49.9 | strong suppression of IRS1 and WNT1 | 81.0 | 0.046 ± 0.007 | 0.046 to 0.052 | 0.036 ± 0.005 | 0.034 to 0.036 | 68.1 | 57.9 | 0.021 ± 0.007 | – | – |
| CCn1cnc2c(NCc3ccc(-c4ccccn4)nc3)nc(-c3cnc(N)nc3)nc21 [Compound 30e, N-([2,2′-Bipyridin]-5-ylmethyl)-2-(2-aminopyrimidin-5-yl)-9-ethyl-9H-purin-6-amine] | greatly downregulated in a dose-dependent manner | strong, dose-dependent suppression | greatly downregulated in a dose-dependent manner | strong suppression of IRS1 and WNT1 | strong, dose-dependent suppression | strong suppression of IRS1 and WNT1 | 67.6 | 100 | 85 | strong suppression of IRS1 and WNT1 | 92.1 | 0.052 ± 0.003 | 0.046 to 0.052 | 0.034 ± 0.002 | 0.034 to 0.036 | 72.6 | 81.6 | 0.085 ± 0.011 | – | – |
| CCc1cnn2c(NCc3ccc[n+]([O-])c3)cc(N3CCCC[C@H]3CCO)nc12 [Dinaciclib] | only a marginal downregulation of cyclinK | more potent inhibition of PolII CTD phosphorylation | only a marginal downregulation of cyclinK | – | more potent inhibition of PolII CTD phosphorylation | – | – | – | – | – | – | 0.012 ± 0.001 | – | 0.012 ± 0.001 | – | – | – | – | marginal activity in downrgulating cyclinK | strongly suppressed PolII p-CTD |
